# Results reported in US10774064B2 (Cadent Therapeutics, Inc., priority 2016, dated 2020).
# Like-named read-outs stand apart in the source and are kept apart here.
# Tests used:
# [1] = brain concentration by mass spectrometry from brains harvested after tremor recording; free brain concentration and % SK2 SC100; format: in vivo, Male Sprague Dawley rats; settings: male, Sprague Dawley, rat, oral, 30 mg/Kg
# Excerpt: The amount of free compound is then expressed in terms of its potency against the SK2 channel as follows: % SK2 SC100=CFB/SK2 SC100×100, where SK2 SC100 (Table 3, “SK2 SC100”) is the measured value of potency of the compound against SK2 channels and % SK2 SC100 (Table 3, “% SK2 SC100”) is the free brain concentration (CFB) normalized to SK2 SC100. Thus the % SK2 SC100 gives a measure of the degree to which each of the compounds is modulating SK2 channels regardless of differences in potency or exposure. Values are given in […]
# [2] = system: harmaline induced tremor; assay: harmaline induced tremor in rats; format: in vivo, Male Sprague Dawley rats
# Description: Immediately following harmaline injection, animals were placed in the tremor quantification apparatus and tremor events were quantified for 60 minutes. A tremor event signal was generated when a small metal transmitter band fitted to the right forepaw of the animal moved within the electromagnetic field generated by a loop antenna within the testing apparatus. Outputs from the amplifier were digitized at a sampling rate of 1,000 Hz and the signal was processed and analyzed using LabView software (National Instruments). To minimize signal from ambulatory and grooming behavior, the signal was filtered with a 128-ms nonweigthed moving average filter, and events with amplitudes >0.5 V and lasting >300 ms in duration were counted as a tremor event. Data were analyzed in one-minute bins over the course of the test and presented as the sum of tremor events over the entire 60 minute test.
# [3] = target: T1, small-conductance Ca2+-activated K+ channels (SK channels, subtype 2) (Homo sapiens, UniProt Q9H2S1); assay: whole-cell patch-clamp of ionic current through SK2 channels in HEK293 cells (SC100); format: cell-based; settings: for SC100 (μM): whole-cell patch-clamp, HEK293 cells expressing SK2 channels, concentration that increases the basal current by 100%
# T1 construct: expressed in transfected cells; host or cells: HEK293
# In short: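 Whole-cell patch-clamp recording of current in HEK293 cells expressing SK2 channels. SC100 is the compound concentration that increases basal current by 100%.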
Compound,SC100 (μM) [3],further results
"Cc1ccn(-c2nc(NC3CCC(F)(F)CC3)cc(N3CCOCC3)n2)n1 [Compound 359, N-(4,4-difluorocyclohexyl)-2-(3-methyl-1H-pyrazol-1-yl)-6-morpholinopyrimidin-4-amine]",–,"concentration at 90 min ([1]; CFB=CMB×BFF, read-out: Calculated Free Brain Concentration): 80 nM; concentration at 90 min ([1]; brains harvested immediately following tremor recording, mass spectrometry, at minimally efficacious dose, read-out: Measured Brain Concentration): 1300 nM; inhibition of tremors (sum of tremor events over 60 minutes) ([2]; 30 mg/Kg oral, 30 minutes prior to harmaline injection, FIG. 1): significant inhibition of tremors; Minimally Efficacious Dose ([2]; oral administration 30 minutes prior to harmaline injection, rats): 30 mg/kg; Measured SK2 SC100 ([3]; potency against SK2 channels): 0.5 µM"
"Cc1cc(C)n(-c2cc(C(O)Cc3cnn(C)n3)cc(NC3CCC(F)(F)CC3)n2)n1 (centres unmarked) [NSSy7053, 1-(2-((4,4-difluorocyclohexyl)amino)-6-(3,5-dimethyl-1H-pyrazol-1-yl)pyridin-4-yl)-2-(2-methyl-2H-1,2,3-triazol-4-yl) ethan-1-ol]",++ (++ means 200 nM-1000 nM),–
COc1cnc(-n2ccc(C)n2)nc1NC1CCC(F)(F)CC1 [NSSy7055],+ (+ means >1 uM),–
"Cc1cc(NC2CCC(F)(F)CC2)nc(-n2ccc(OC(F)F)n2)n1 [NSSy7059, N-(4,4-difluorocyclohexyl)-2-(3(difluoromethoxy)-1H-pyrazol-1-yl)-6-methylpyrimidin-4-amine]",++ (++ means 200 nM-1000 nM),–
COc1cc(NC2CCC(F)(F)CC2)nc(-n2nc(C)c(F)c2C)n1 [NSSy7062],++ (++ means 200 nM-1000 nM),–
COc1cnc(-n2ccc(C3CC3)n2)nc1NC1CCC(F)(F)CC1 [NSSy7063],+ (+ means >1 uM),–
Cc1ccn(-c2cc(C(O)Cc3cnn(C)n3)cc(NC3CCC(F)(F)CC3)n2)n1 (centres unmarked) [NSSy7064],++ (++ means 200 nM-1000 nM),–
"Cc1ccn(-c2cc(C(O)Cc3cnnn3C)cc(NC3CCC(F)(F)CC3)n2)n1 (centres unmarked) [NSSy7065, 1-(2-((4,4-difluorocyclohexyl)amino)-6-(3-methyl-1H-pyrazol-1-yl)pyridin-4-yl)-2-(1-methyl-1H-1,2,3-triazol-5-yl) ethan-1-ol]",++ (++ means 200 nM-1000 nM),–
"Cc1ccn(-c2cc(C(O)Cc3cn(C)nn3)cc(NC3CCC(F)(F)CC3)n2)n1 (centres unmarked) [NSSy7079, 1-(2-((4,4-difluorocyclohexyl)amino)-6-(3-methyl-1H-pyrazol-1-yl)pyridin-4-yl)-2-(1-methyl-1H-1,2,3-triazol-4-yl)ethan-1-ol]",++ (++ means 200 nM-1000 nM),–
"Oc1ccn(-c2nc(NC3CCC(F)(F)CC3)cc(N3CCOCC3)n2)n1 [NSSy7087, 1-(4-((4,4-difluorocyclohexyl)amino)-6-morpholinopyrimidin-2-yl)-1H-pyrazol-3-ol]",+ (+ means >1 uM),–
